Results: patent US20040255344A1, “Rodent with urinary disturbance and method of constructing the same, and method of screening remedy for urinary disturbance using the rodent” (priority 2001, published 2004)
Counter-ions that a name gives are not always drawn.

Test system: urinary dysfunction model rat
Test: screening test in urinary dysfunction model rat (superior colliculus lesion), cystometrography
Type: in vivo
Conditions: 0.3 mg/kg iv, 5 minutes after intravenous administration, FIG. 9
Description: FIG. 3 indicates a schematic diagram of a system to measure the status of accelerated urinary reflex used in the present invention.
Here, a cystometrogram is made when detecting the urinary reflex by putting a catheter (not indicated in the diagram) in the bladder, and continuously measuring the changes of internal bladder pressure through the said catheter.
Further, the volume of the bladder can be calculated from the results of this cystometrogram as follows. Specifically, when infusing physiological saline into the bladder at a constant rate, the volume of the bladder can be calculated by multiplying the time required to reach the threshold where the urinary reflex starts by the fixed rate.
An urinary dysfunction model rat was produced by the following method. […]
After the operation was complete and the animals had awakened from the anesthesia, the post-operative rat was measured using cystometrography based on the system indicated in FIG. 3, and the status of accelerated urinary reflex was confirmed.
Using a control rat and the rat produced under adequate conditions based on the present invention, the presence of a therapeutic effect was assessed after intravenously administering oxybutynin hydrochloride (0.3 mg/kg iv:iv means intravenous injection, and iv means the same in FIG. 9.), which is a candidate compound as a therapeutic agent for urinary dysfunction. […]

`CCN(CC)CC#CCOC(=O)C(O)(c1ccccc1)C1CCCCC1` (centres unmarked) [oxybutynin hydrochloride] was tested, and the bladder volume was “increased” and the “level of the urinary dysfunction” value was “improved”.
